This is an account of results in paper PMC2063130, “Reversal of P-glycoprotein-mediated multidrug resistance by XR9051, a novel diketopiperazine derivative” (British Journal of Cancer, 1998).

Assay [1] deals with T1, P-glycoprotein (Cricetulus griseus, UniProt P21448).
T1 construct: gene ABCB1; CHrB30 plasma membranes
Nature of the assay: displacement of [3H]vinblastine equilibrium binding, rapid filtration. As to conditions: read-out: EC50 (the source's name).

The target in assay [2] is T1, P-glycoprotein. Nature of the assay: radioligand filtration binding; no specific binding in parental AuxB1 membranes (Kd […] is quoted from earlier work).

T1 sequence (P21448 whole entry): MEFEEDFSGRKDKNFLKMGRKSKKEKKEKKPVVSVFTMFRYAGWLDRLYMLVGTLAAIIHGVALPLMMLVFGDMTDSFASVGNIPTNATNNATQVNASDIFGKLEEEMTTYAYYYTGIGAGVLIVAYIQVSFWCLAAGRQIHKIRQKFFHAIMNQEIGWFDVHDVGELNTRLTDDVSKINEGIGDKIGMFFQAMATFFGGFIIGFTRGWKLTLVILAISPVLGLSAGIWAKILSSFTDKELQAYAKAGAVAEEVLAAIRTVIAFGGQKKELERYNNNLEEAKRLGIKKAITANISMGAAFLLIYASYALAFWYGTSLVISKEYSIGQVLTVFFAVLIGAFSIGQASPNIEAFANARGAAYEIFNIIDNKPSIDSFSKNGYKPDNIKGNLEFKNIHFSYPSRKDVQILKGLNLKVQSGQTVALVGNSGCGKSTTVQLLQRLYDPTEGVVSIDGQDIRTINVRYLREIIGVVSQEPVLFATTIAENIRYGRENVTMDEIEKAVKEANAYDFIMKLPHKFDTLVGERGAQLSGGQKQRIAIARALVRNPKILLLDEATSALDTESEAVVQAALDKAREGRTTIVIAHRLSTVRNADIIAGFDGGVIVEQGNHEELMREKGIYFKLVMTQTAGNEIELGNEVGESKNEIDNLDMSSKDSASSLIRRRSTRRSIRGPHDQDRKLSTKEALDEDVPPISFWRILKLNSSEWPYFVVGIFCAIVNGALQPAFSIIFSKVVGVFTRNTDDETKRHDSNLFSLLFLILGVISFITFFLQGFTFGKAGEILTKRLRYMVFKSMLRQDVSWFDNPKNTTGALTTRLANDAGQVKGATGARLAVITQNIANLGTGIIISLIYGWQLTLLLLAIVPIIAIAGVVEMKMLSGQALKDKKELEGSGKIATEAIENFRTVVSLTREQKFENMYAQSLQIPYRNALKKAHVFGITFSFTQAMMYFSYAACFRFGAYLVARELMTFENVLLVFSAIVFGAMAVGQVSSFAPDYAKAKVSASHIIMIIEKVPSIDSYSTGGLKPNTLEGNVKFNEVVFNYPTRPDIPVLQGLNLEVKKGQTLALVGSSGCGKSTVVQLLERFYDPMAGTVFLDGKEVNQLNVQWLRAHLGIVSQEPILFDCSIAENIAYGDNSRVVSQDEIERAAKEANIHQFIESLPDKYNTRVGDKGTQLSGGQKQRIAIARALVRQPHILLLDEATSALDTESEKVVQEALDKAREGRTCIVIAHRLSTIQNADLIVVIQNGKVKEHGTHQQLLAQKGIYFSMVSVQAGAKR

Turning to `COc1cc2c(cc1OC)CN(CCc1ccc(NC(=O)c3cccc(/C=c4\[nH]c(=O)/c(=C/c5ccccc5)n(C)c4=O)c3)cc1)CC2` [XR9051, N-(4-(2-(6,7-Dimethoxy-1,2,3,4-tetrahydro-2-isoquinolyl)ethyl)phenyl)-3-((3Z,6Z)-6-benzylidene-1-methyl-2,5-dioxo-3-piperazinylidene) methylbenzamide], the IC50 at P-glycoprotein [1] stood at 1.4 nM. Take `CC[C@]1(O)C[C@@H]2CN(CCc3c([nH]c4ccccc34)[C@@](C(=O)OC)(c3cc4c(cc3OC)N(C)[C@H]3[C@@](O)(C(=O)OC)[C@H](OC(C)=O)[C@]5(CC)C=CCN6CC[C@]43[C@@H]65)C2)C1` [vinblastine]: at P-glycoprotein [2], the “radioligand filtration binding; no specific binding in parental AuxB1 membranes” value is recorded as “A rapid filtration assay was used to determine the equilibrium”.
